Source: US20240025856A1, “1,2,3,4-TETRAHYDROQUINOLINE DERIVATIVES AS INHIBITORS OF THE YAP/TAZ-TEAD ACTIVATION FOR TREATING CANCER” (KATHOLIEKE UNIVERSITEIT LEUVEN, priority 2020, published 2024)

Assays:
Format in all cases: cell-based
NCI-1H226 = assay: Mesothelioma cell line proliferation assay, H226 (ATPlite); settings: Homo sapiens, NCI-H226, 144 h, 6 days with compound
Experimental: (§1) Mesothelioma cell lines, NCI-1H226 and NCI-1H2052 (all sourced from the ATCC cell culture collection) are plated in 96-well plates (Corning® 96 Well White Polystyrene Microplate clear flat bottom, white polystyrene (TC-Treated)), at 1500 cells/well in full medium (RPMI 1640 ATCC modification with L-glutamine, HEPES, Phenol Red, Sodium Pyruvate, High glucose, Low sodium bicarbonate and 10% fetal bovine serum). Cells are incubated overnight at 37° C. in an incubator with 5% C02. Then compounds, dissolved in DMSO, are added in dose-response. Cells are incubated with compound dilutions for another 6 days at 37° C. in an incubator with 5% C02. Cell viability is quantitated using the ATPlite kit (Perkin-Elmer) and the luminescence is read-out using an Envision instrument (Perkin-Elmer). The amount of relative light units produced using the ATPlite kit is used to calculated percent of inhibition.
(§2) The activities of some example compounds are depicted in the table below. The activity ranges A, B and C refer to EC50 values in the mesothelioma cell line proliferation assay as described as follows: “A”: EC50<1 μM; “B”: 1 μM s EC50≤10 μM and “C”: EC50≥10 μM; NT: not tested.

[1] = tested on: YAP/TAZ-TEAD transcription; assay: Reporter gene assay for measuring the inhibition of YAP/TAZ-TEAD transcription (TEAD-responsive element luciferase reporter in Hek293T cells); settings: Hek293T cells transiently transfected with TEAD-responsive element luciferase reporter, 24 hours incubation
Procedure, shortened: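 Readout is SteadyLite luciferase luminescence from a TEAD-responsive element reporter transiently transfected into Hek293T cells, exposed to compounds for 24 h at 37 °C/5% CO2. IC50 derived from percent inhibition, scaled between vehicle basal activity (0%) and positive control inhibitor (100%).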

NCI-1H2052 = assay: Mesothelioma cell line proliferation assay, H2052 (ATPlite); settings: Homo sapiens, NCI-H2052, 144 h, 6 days with compound, read-out: H2025 (EC50)
Experimental: as §1, §2

IC50 ([1]; Homo sapiens, HEK-293T, 24 h) | IC50 [1] | SMILES | EC50 (NCI-1H226) | EC50 (NCI-1H2052)
< 1 µM | – | C=CC(=O)NC1Cc2c(C)cccc2N(c2ccc(C(F)(F)F)cc2)C1 (stereo not shown) [compound 064, N-(5-methyl-1-(4-(trifluoromethyl)phenyl)-1,2,3,4-tetrahydroquinolin-3-yl)acrylamide] | < 1 µM | –
< 1 µM | – | C=CC(=O)NC1Cc2c(CO)cccc2N(c2ccc(C(F)(F)F)cc2)C1 (stereo not shown) [compound 139, N-(5-(hydroxymethyl)-1-(4-(trifluoromethyl)phenyl)-1,2,3,4-tetrahydroquinolin-3-yl)acrylamide] | < 1 µM | < 1 µM
< 1 µM | – | C=CC(=O)NC1Cc2c(NCCOC)cccc2N(c2ccc(C(F)(F)F)cc2)C1 (stereo not shown) [compound 077, N-(5-((2-methoxyethyl)amino)-1-(4-(trifluoromethyl)phenyl)-1,2,3,4-tetrahydroquinolin-3-yl)acrylamide] | < 1 µM | < 1 µM
< 1 µM | – | C=CC(=O)NC1Cc2ccccc2N(Cc2ccc(C(F)(F)F)cc2)C1 (stereo not shown) [compound 181, N-(1-(4-(trifluoromethyl)benzyl)-1,2,3,4-tetrahydroquinolin-3-yl)acrylamide] | < 1 µM | –
< 1 µM | – | FC(F)(F)c1ccc(N2CC(C3CC(Br)=NO3)Cc3ccccc32)cc1 (stereo not shown) [Cpd. No. 194, 3-bromo-5-(1-(4-(trifluoromethyl)phenyl)-1,2,3,4-tetrahydroquinolin-3-yl)-4,5-dihydroisoxazole] | < 1 µM | ≥ 10 µM
< 1 µM | – | C=CC(=O)NC1Cc2c(C#N)cccc2N(c2ccc(C(F)(F)F)cc2)C1 (stereo not shown) [compound 078, N-(5-cyano-1-(4-(trifluoromethyl)phenyl)-1,2,3,4-tetrahydroquinolin-3-yl)acrylamide] | < 1 µM | < 1 µM
< 1 µM | – | C=CC(=O)NC1Cc2ccccc2N(c2ccc(S(F)(F)(F)(F)F)cc2)C1 (stereo not shown) [compound 023, N-(1-(4-(pentafluoro-λ^6-sulfaneyl)phenyl)-1,2,3,4-tetrahydroquinolin-3-yl)acrylamide] | < 1 µM | –
< 1 µM | – | C=CC(=O)N(C)CC1Cc2ccccc2N(c2ccc(C(F)(F)F)cc2)C1 (stereo not shown) [compound 134, N-methyl-N-((1-(4-(trifluoromethyl)phenyl)-1,2,3,4-tetrahydroquinolin-3-yl)methyl)acrylamide] | < 1 µM | –
< 1 µM | – | C=CC(=O)NCC1Cc2ccccc2N(c2ccc(C(F)(F)F)cc2F)C1 (stereo not shown) [compound 113, N-((1-(2-fluoro-4-(trifluoromethyl)phenyl)-1,2,3,4-tetrahydroquinolin-3-yl)methyl)acrylamide] | < 1 µM | –
< 1 µM | – | C=CC(=O)NC1Cc2c(OC)cccc2N(c2ccc(C(F)(F)F)cc2)C1 (stereo not shown) [compound 073, N-(5-methoxy-1-(4-(trifluoromethyl)phenyl)-1,2,3,4-tetrahydroquinolin-3-yl)acrylamide] | < 1 µM | –
< 1 µM | – | C=CC(=O)NC1Cc2ccccc2N(c2ccc(OC(F)(F)F)cc2)C1 (stereo not shown) [compound 021, N-(1-(4-(trifluoromethoxy)phenyl)-1,2,3,4-tetrahydroquinolin-3-yl)acrylamide] | < 1 µM | –
< 1 µM | – | C=CC(=O)NCC1Cc2ccccc2N(Cc2ccc(C(F)(F)F)cc2)C1 (stereo not shown) [compound 184, N-((1-(4-(trifluoromethyl)benzyl)-1,2,3,4-tetrahydroquinolin-3-yl)methyl)acrylamide] | < 1 µM | –
< 1 µM | – | C=CC(=O)NC1Cc2c(Cc3cccnc3)cccc2N(c2ccc(C(F)(F)F)cc2)C1 (stereo not shown) [compound 059, N-(5-(pyridin-3-yl-methyl)-1-(4-(trifluoromethyl)phenyl)-1,2,3,4-tetrahydroquinolin-3-yl)acrylamide] | < 1 µM | –
< 1 µM | – | C=CC(=O)NC1Cc2ccccc2N(c2ccc(SC(F)(F)F)cc2)C1 (stereo not shown) [compound 030, N-(1-(4-((trifluoromethyl)thio)phenyl)-1,2,3,4-tetrahydroquinolin-3-yl)acrylamide] | < 1 µM | –
– | < 1 µM | C=CC(=O)NCC1Cc2c(Cc3noc(=O)[nH]3)cccc2N(c2ccc(C(F)(F)F)cc2)C1 (stereo not shown) [Cpd. No. 168-En2, N-((5-((5-oxo-4,5-dihydro-1,2,4-oxadiazol-3-yl)methyl)-1-(4-(trifluoromethyl)phenyl)-1,2,3,4-tetrahydroquinolin-3-yl)methyl)acrylamide] | – | –
< 1 µM | – | C=CC(=O)NCC1Cc2ccccc2N(c2ccccc2)C1 (stereo not shown) [compound 085, N-((1-phenyl-1,2,3,4-tetrahydroquinolin-3-yl)methyl)acrylamide] | – | –
< 1 µM | – | C=CC(=O)NC1Cc2ccccc2N(c2ccc(OC)cc2)C1 (stereo not shown) [compound 007, N-(1-(4-methoxyphenyl)-1,2,3,4-tetrahydroquinolin-3-yl)acrylamide] | – | –

IC50 ([1]; Homo sapiens, HEK-293T, 24 h) | IC50 [1] | SMILES | EC50 (NCI-1H226) | EC50 (NCI-1H2052)
< 1 µM | – | C=CC(=O)NCC1Cc2c(C)cccc2N(c2ccc(C(F)(F)F)cc2)C1 (stereo not shown) [compound 128, N-((5-methyl-1-(4-(trifluoromethyl)phenyl)-1,2,3,4-tetrahydroquinolin-3-yl)methyl)acrylamide] | < 1 µM | –
– | > 20 µM | C=CC(=O)NCC1Cc2c(C(=O)NS(C)(=O)=O)cccc2N(c2ccc(C(F)(F)F)cc2)C1 (single isomer, unassigned) [157-En1, (R)- or (S)-3-(acrylamidomethyl)-N-(methylsulfonyl)-1-(4-(trifluoromethyl)phenyl)-1,2,3,4-tetrahydroquinoline-5-carboxamide] | – | –
< 1 µM | – | C=CC(=O)NC1Cc2ccccc2N(Cc2ccccc2)C1 (stereo not shown) [Cpd. No. 174, N-(1-benzyl-1,2,3,4-tetrahydroquinolin-3-yl)acrylamide] | – | –
< 1 µM | – | C=CC(=O)NC1Cc2c(CN3CCOCC3)cccc2N(c2ccc(C(F)(F)F)cc2)C1 (stereo not shown) [compound 068, N-(5-(morpholinomethyl)-1-(4-(trifluoromethyl)phenyl)-1,2,3,4-tetrahydroquinolin-3-yl)acrylamide] | – | –
< 1 µM | – | C=CC(=O)NC1Cc2c(ccnc2N)N(c2ccc(C(F)(F)F)cc2)C1 (stereo not shown) [compound 146, N-(5-amino-1-(4-(trifluoromethyl)phenyl)-1,2,3,4-tetrahydro-1,6-naphthyridin-3-yl)acrylamide] | – | –
– | < 1 µM | OCCNC1Cc2ccccc2N(c2ccc(C(F)(F)F)cc2)C1 (single isomer, unassigned) [043-En2, (R)- or (S)-2-((1-(4-(trifluoromethyl)phenyl)-1,2,3,4-tetrahydroquinolin-3-yl)amino)ethan-1-ol] | – | –
1 to 20 µM | – | NCC1Cc2ccccc2N(c2ccc(C(F)(F)F)cc2)C1 (stereo not shown) [170 (Int-10), (1-(4-(trifluoromethyl)phenyl)-1,2,3,4-tetrahydroquinolin-3-yl)methanamine] | – | –
1 to 20 µM | – | C=CC(=O)NC1Cc2ccccc2N(c2cccc(NC(C)=O)c2)C1 (stereo not shown) [compound 015, N-(1-(3-acetamidophenyl)-1,2,3,4-tetrahydroquinolin-3-yl)acrylamide] | – | –
< 1 µM | – | O=C(O)CCNC1Cc2ccccc2N(c2ccc(C(F)(F)F)cc2)C1 (stereo not shown) [compound 046, 3-((1-(4-(trifluoromethyl)phenyl)-1,2,3,4-tetrahydroquinolin-3-yl)amino)propanoic acid] | – | –
< 1 µM | – | C=CC(=O)NCC1Cc2ccccc2N([C@H]2CC[C@@H](C(F)(F)F)CC2)C1 (stereo partly drawn) [compound 144, cis-N-((1-(4-(trifluoromethyl)cyclohexyl)-1,2,3,4-tetrahydroquinolin-3-yl)methyl)acrylamide] | – | –
1 to 20 µM | – | C=CC(=O)NC1Cc2ccccc2N(c2cccc(-c3ccccc3)c2)C1 (stereo not shown) [compound 009, N-(1-([1,1′-biphenyl]-3-yl)-1,2,3,4-tetrahydroquinolin-3-yl)acrylamide] | – | –
1 to 20 µM | – | N#CCNC1Cc2ccccc2N(c2ccc(C(F)(F)F)cc2)C1 (stereo not shown) [compound 054, 2-((1-(4-(trifluoromethyl)phenyl)-1,2,3,4-tetrahydroquinolin-3-yl)amino)acetonitrile] | – | –
< 1 µM | – | C=CC(=O)NCC1Cc2ccccc2N(c2cc(F)ccc2F)C1 (stereo not shown) [compound 110, N-((1-(2,5-difluorophenyl)-1,2,3,4-tetrahydroquinolin-3-yl)methyl)acrylamide] | – | –
1 to 20 µM | – | CCC(=O)NCC1Cc2ccccc2N(c2ccc(C(F)F)nc2)C1 (stereo not shown) [compound 152, N-((1-(6-(difluoromethyl)pyridin-3-yl)-1,2,3,4-tetrahydroquinolin-3-yl)methyl)propionamide] | – | –
< 1 µM | – | C=CC(=O)NC1Cc2c(Nc3ccccc3)cccc2N(c2ccc(C(F)(F)F)cc2)C1 (stereo not shown) [compound 069, N-(5-(phenylamino)-1-(4-(trifluoromethyl)phenyl)-1,2,3,4-tetrahydroquinolin-3-yl)acrylamide] | – | –
< 1 µM | – | C=CC(=O)NCC1Cc2ccccc2N(c2cccc(F)c2)C1 (stereo not shown) [compound 108, N-((1-(3-fluorophenyl)-1,2,3,4-tetrahydroquinolin-3-yl)methyl)acrylamide] | – | –
